Test results from ChEMBL document CHEMBL1145924 (J Med Chem, 2003).
Where “and” joins values, the source holds several entries; their conditions need not be identical. Equal entries are not always repeated.

Organism: Cavia porcellus
Assay: Apparent pA2 value of compound at 100 nM concentration of mepyramine in guinea pig aorta
Conditions: not given

Row | SMILES | Kb [nM]
1 | CNCCc1c[nH]c(CCC(c2ccccc2)c2ccccc2)n1 | 1.78

Target: T1, Histamine H1 receptor (Cavia porcellus, UniProt P31389)
Assay: Effective concentration against histamine H1 receptor in endothelium-Denuded rings of guinea pig Aorta
Conditions: not given

T1 sequence (P31389 whole entry): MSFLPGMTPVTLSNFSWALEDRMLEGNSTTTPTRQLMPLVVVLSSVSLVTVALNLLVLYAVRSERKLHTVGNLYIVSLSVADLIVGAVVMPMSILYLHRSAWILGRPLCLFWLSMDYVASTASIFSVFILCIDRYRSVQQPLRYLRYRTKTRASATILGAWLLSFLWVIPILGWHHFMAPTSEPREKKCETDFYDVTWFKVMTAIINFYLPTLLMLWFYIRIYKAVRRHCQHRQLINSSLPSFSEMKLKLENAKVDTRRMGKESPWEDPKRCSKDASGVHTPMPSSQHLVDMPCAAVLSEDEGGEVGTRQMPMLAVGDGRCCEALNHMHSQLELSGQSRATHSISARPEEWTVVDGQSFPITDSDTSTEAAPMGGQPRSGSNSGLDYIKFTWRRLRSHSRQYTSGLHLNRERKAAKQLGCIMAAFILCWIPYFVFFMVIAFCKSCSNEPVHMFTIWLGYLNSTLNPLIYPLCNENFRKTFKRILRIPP

Row | SMILES | EC50 [nM]
2 | CNCCc1cnc(CCC(c2ccccc2)c2ccccc2)[nH]1 | 39.8
3 | NCCc1cnc(CCC(c2ccccc2)c2ccccc2)[nH]1 | 158

Target: Histamine H2 receptor (Cavia porcellus) (UniProt P47747)
Sequence (P47747 whole entry): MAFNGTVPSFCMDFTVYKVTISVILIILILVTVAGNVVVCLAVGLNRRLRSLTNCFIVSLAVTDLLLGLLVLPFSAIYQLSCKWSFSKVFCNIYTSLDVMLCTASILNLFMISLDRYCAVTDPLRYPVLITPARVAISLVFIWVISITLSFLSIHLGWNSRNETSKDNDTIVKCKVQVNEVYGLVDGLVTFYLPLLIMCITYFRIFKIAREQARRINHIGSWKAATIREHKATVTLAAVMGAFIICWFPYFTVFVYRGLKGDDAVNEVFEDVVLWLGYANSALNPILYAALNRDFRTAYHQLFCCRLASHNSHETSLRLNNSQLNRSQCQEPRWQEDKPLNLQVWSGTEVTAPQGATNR
Assay: not given
Conditions: Cardiac atrium

Row | SMILES | pD2
4 | c1ccc(C(CCc2nc(CCNCCCc3cccnc3)c[nH]2)c2ccccc2)cc1 | 4.05
5 | c1ccc(C(CCc2nc(CCNCCCCc3cccnc3)c[nH]2)c2ccccc2)cc1 | 4.77
6 | c1ccc(C(CCc2nc(CCNCCCc3ccncc3)c[nH]2)c2ccccc2)cc1 | 4.36
7 | c1ccc(C(CCc2nc(CCNCCCCc3ccncc3)c[nH]2)c2ccccc2)cc1 | 4.59
8 | c1ccc(C(CCc2nc(CCNCCCCCc3ccncc3)c[nH]2)c2ccccc2)cc1 | 4.12

Target: Histamine H1 receptor (Cavia porcellus) (UniProt P31389)
Sequence (P31389 whole entry): as the sequence (P31389 whole entry) above
Assay: Concentration required for agonistic activity against histamine H1 receptor in guinea pig ileum
Type: functional, tissue-based
Conditions: not given

Row | SMILES | Concentration [µM]
9 | NCCc1c[nH]c(CCC(c2ccccc2)c2ccccc2)n1 | 3

Organism: Cavia porcellus
Assay: Apparent pA2 value of compound at 10 nM concentration of mepyramine in guinea pig aorta
Conditions: not given

Row | SMILES | Kb [nM]
10 | NCCc1c[nH]c(CCC(c2ccccc2)c2ccccc2)n1 | 0.977

Organism: Cavia porcellus
Assay: tissue or blood
Conditions: Ileum, read-out: pA2 (converted)

Row | SMILES | Kb [nM]
11 | NCCc1c[nH]cn1 [HISTAMINE] | 0.851

Target: Histamine H1 receptor (Rattus norvegicus) (UniProt P31390)
Sequence (P31390 whole entry): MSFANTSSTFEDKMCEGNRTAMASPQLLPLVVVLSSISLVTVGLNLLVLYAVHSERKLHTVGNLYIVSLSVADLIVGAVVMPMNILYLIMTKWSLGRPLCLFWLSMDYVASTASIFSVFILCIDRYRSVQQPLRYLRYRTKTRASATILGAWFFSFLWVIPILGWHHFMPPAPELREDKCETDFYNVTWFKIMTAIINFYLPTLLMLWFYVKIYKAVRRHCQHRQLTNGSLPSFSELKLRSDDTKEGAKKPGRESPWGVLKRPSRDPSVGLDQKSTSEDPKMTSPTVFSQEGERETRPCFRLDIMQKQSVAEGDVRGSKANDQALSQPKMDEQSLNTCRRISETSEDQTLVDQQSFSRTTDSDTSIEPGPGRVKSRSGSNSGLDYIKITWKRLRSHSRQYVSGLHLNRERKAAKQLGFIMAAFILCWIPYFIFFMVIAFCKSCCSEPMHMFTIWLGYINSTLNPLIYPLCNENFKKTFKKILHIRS
Assay: Maximum response (E max) against H1 receptor in rat aorta
Type: tissue-based
Conditions: not given

Row | SMILES | Emax [%]
12 | NCCc1c[nH]c(CCC(c2ccccc2)c2ccccc2)n1 | 50

Organism: Cavia porcellus
Assay: Apparent pD2 value of compound at 3 nM concentration of mepyramine in guinea pig ileum
Type: functional
Conditions: not given

Row | SMILES | pD2
13 | c1ccc(C(CCc2nc(CCNCCCc3ccncc3)c[nH]2)c2ccccc2)cc1 | 8.49
14 | c1ccc(C(CCc2nc(CCNCCCCCc3ccncc3)c[nH]2)c2ccccc2)cc1 | 8.63

Organism: Cavia porcellus
Assay: Apparent pA2 value at 3 nM concentration of mepyramine in guinea pig ileum
Type: functional
Conditions: read-out: pA2 (converted)

Row | SMILES | Kb [nM]
15 | c1ccc(C(CCc2nc(CCNCCCc3cccnc3)c[nH]2)c2ccccc2)cc1 | 1.82
16 | c1ccc(C(CCc2nc(CCNCCCCc3cccnc3)c[nH]2)c2ccccc2)cc1 | 1.7
17 | c1ccc(C(CCc2nc(CCNCCCCc3ccncc3)c[nH]2)c2ccccc2)cc1 | 1.12

Target: Histamine H1 receptor (Cavia porcellus) (UniProt P31389)
Assay: Concentration required for agonistic activity against histamine in guinea pig ileum
Type: functional, tissue-based
Conditions: not given

Row | SMILES | Concentration [µM]
18 | c1ccc(C(CCc2nc(CCNCCCc3cccnc3)c[nH]2)c2ccccc2)cc1 | 10
19 | c1ccc(C(CCc2nc(CCNCCCCc3cccnc3)c[nH]2)c2ccccc2)cc1 | 3
20 | c1ccc(C(CCc2nc(CCNCCCc3ccncc3)c[nH]2)c2ccccc2)cc1 | 10
21 | c1ccc(C(CCc2nc(CCNCCCCc3ccncc3)c[nH]2)c2ccccc2)cc1 | 10
22 | c1ccc(C(CCc2nc(CCNCCCCCc3ccncc3)c[nH]2)c2ccccc2)cc1 | 10

Target: Histamine H1 receptor (Cavia porcellus) (UniProt P31389)
Assay: Maximum response (E max) against histamine H1 receptor in guinea pig ileum
Type: tissue-based
Conditions: not given

Row | SMILES | Emax
23 | c1ccc(C(CCc2nc(CCNCCCc3cccnc3)c[nH]2)c2ccccc2)cc1 | 48%
24 | c1ccc(C(CCc2nc(CCNCCCCc3cccnc3)c[nH]2)c2ccccc2)cc1 | 88%
25 | NCCc1c[nH]c(CCC(c2ccccc2)c2ccccc2)n1 | 100% and 84%
26 | c1ccc(C(CCc2nc(CCNCCCc3ccncc3)c[nH]2)c2ccccc2)cc1 | 48%
27 | c1ccc(C(CCc2nc(CCNCCCCc3ccncc3)c[nH]2)c2ccccc2)cc1 | 84%
28 | c1ccc(C(CCc2nc(CCNCCCCCc3ccncc3)c[nH]2)c2ccccc2)cc1 | 57%

Target: Histamine H1 receptor (Cavia porcellus) (UniProt P31389)
Assay: Equilibrium dissociation constant (pKp) against histamine H1 receptor in guinea pig ileum
Type: tissue-based
Conditions: not given

Row | SMILES | pKp
29 | c1ccc(C(CCc2nc(CCNCCCc3cccnc3)c[nH]2)c2ccccc2)cc1 | 6.18
30 | c1ccc(C(CCc2nc(CCNCCCCc3cccnc3)c[nH]2)c2ccccc2)cc1 | 6.88
31 | NCCc1c[nH]c(CCC(c2ccccc2)c2ccccc2)n1 | 6.04
32 | c1ccc(C(CCc2nc(CCNCCCc3ccncc3)c[nH]2)c2ccccc2)cc1 | 5.69
33 | CNCCc1c[nH]c(CCC(c2ccccc2)c2ccccc2)n1 | 6.45
34 | c1ccc(C(CCc2nc(CCNCCCCc3ccncc3)c[nH]2)c2ccccc2)cc1 | 6.56
35 | c1ccc(C(CCc2nc(CCNCCCCCc3ccncc3)c[nH]2)c2ccccc2)cc1 | 5.9

Target: T1, Histamine H1 receptor
Assay: Effective concentration against histamine H1 receptor in guinea pig ileum
Type: tissue-based
Conditions: not given

Row | SMILES | EC50 [nM]
36 | c1ccc(C(CCc2nc(CCNCCCc3cccnc3)c[nH]2)c2ccccc2)cc1 | 117
37 | c1ccc(C(CCc2nc(CCNCCCCc3cccnc3)c[nH]2)c2ccccc2)cc1 | 13.5
38 | c1ccc(C(CCc2nc(CCNCCCc3ccncc3)c[nH]2)c2ccccc2)cc1 | 269
39 | c1ccc(C(CCc2nc(CCNCCCCc3ccncc3)c[nH]2)c2ccccc2)cc1 | 24
40 | c1ccc(C(CCc2nc(CCNCCCCCc3ccncc3)c[nH]2)c2ccccc2)cc1 | 95.5
